What all share (assay type): cell-based, human
Assay [1] concerns SIX1::GFP cells. The experiment in a line: High throughput screen for compounds that promote placode induction. To be noted: added at day 3, imaged at day 6. As for the experimental part: High throughput screen for compounds that promote placode induction: SIX1::GFP cells were cultured according to the PIP-E6 protocol. 1280 test compounds were screened for their ability to enhance placode induction. Each test compound was added to the cell culture media at day 3, and cells were imaged to determine the level of placode induction at day 6. (FIG. 60).

The test system of assay [2] is SIX1::H2B-GFP reporter cells. As to the kind of experiment: PIP-E6 placode induction in E8/E6 media. From the text: PIP protocol using E8/E6 cell culture media: E8/E6 cell culture media (Essential8™/Essential6™, Nat Methods. 2011 May; 8(5):424-9) comprises the ingredients DMEM/F12, ascorbic acid, selenum, insulin, NaHCO3, transferrin, FGF2 and TGFβ. […] The present example describes a modified PIP protocol that utilizes the BMP deficient E8/E6 media.
A Six1 knock in GFP reporter cell line (SIX1::H2B-GFP) was developed to monitor when cells have been transformed to a placode fate. (FIGS. 41A-41E). Culturing the reporter cells in E8/E6 media according to the KSR PIP protocol described herein, in which cells were cultured in media comprising the SMAD inhibitors SB431542 and LDN193189, wherein LDN193189 was withdrawn after 2 days of culture, yielded low levels of placode cells after 11 days of culture. (FIGS. 42A-42B). BMP4, which is not present in E8/E6 media, is necessary for cells to differentiate into non-neural ectoderm and placode, as evidenced by expression of the marker AP2. (FIGS. 43A-43C). […] (FIGS. 44A-44C). […] (FIGS. 45A-45B). […] (FIGS. 46 and 47). Although the yield of induced placode cells was low using the PIP-E6 protocol, the induction was highly consistent compared to the KSR PIP protocol. (FIG. 48).
In order to make the trigeminal placode fate the default fate when culturing using the PIP-E6 protocol, PIP-E6 was modified by adding CHIR (Wnt activator) to the culture protocol. […] (FIGS. 49A-49B). FIG. 50 depicts the pituitary, lens and trigeminal placodes that can be induced using the PIP-E6 culture protocol.

Assay [3] has as its system hESC. The experiment in a line: Placode induction from hESC (N-SB versus PIP, SIX1 expression). Particulars: for placode fate: high concentrations, starting at day 3 of PIP. The method, then:
A timed withdrawal of the BMP inhibitor Noggin during N-SB differentiation was also tested to determine if placodal fates could be induced via derepressing endogenous BMP signaling. A time course analysis was performed during which Noggin was removed at different time points of the N-SB protocol (FIG. 28A).
Withdrawal of the BMP inhibitor noggin during N-SB differentiation may enhance the emergence of placodal fates by de-repressing endogenous BMP signaling. To this end, a time course study was performed by removing noggin at different time points of the NSB protocol (FIG. 11A) while monitoring the induction of placodal marker (FIG. 11B) trophoectodermal, neurectodermal by qRT-PCR analysis at day 11 of differentiation. Withdrawal of noggin at day 2 or 3 of differentiation yielded efficient induction of Six1 while noggin withdrawal at day 1 of differentiation lead to the induction of Eya1 in the absence of Six1 expression.
Neural Induction and placode induction: Feeder-free neural induction was carried out as previously described (Chambers et al., 2009). Briefly, hESCs cultures were disaggregated using accutase for 20 minutes, washed using hESCs media and pre-plated on gelatin for 1 hour at 37° C. in the presence of ROCK inhibitor to remove MEFs. The non-adherent hESCs were washed and plated on matrigel at a density of 60,000 cells/cm2 on matrigel (BD) coated dishes in MEF conditioned hESCs media (CM) spiked with 10 ng/mL of FGF-2 and ROCK-inhibitor. The ROCK inhibitor was withdrawn after 24 hours, and hESCs were allowed to expand in CM for 2 days or until they were 95% confluent. The initial differentiation media conditions included knock out serum replacement (KSR) media with 10 μM TGF-β inhibitor (SB431542, Tocris) and 250 ng/mL of Noggin (R&D). Upon day 5 of differentiation, increasing amounts of N2 media (25%, 50%, and 75%) were added to the KSR media every two days while maintaining […] of Noggin and TGF-β inhibitor. Similar results could be obtained when using KSR-free conditions (E6 medium (Chen et al., 2011)) following adjustments in BMP signaling; data not shown). For placode induction, Noggin was removed at day3 of differentiation. In some experiments, BMP-4 (R&D 50 ng/ml), Noggin (R&D 250 ng/ml), DKK-1 (R&D 100 ng/ml), FGF8 (R&D 50 ng/ml), SU5402 (Tocris 10 μM), Wnt-3a (R&D 50 ng/ml), DAPT (Tocris, 10 μM), CHIR99021 (Stemgent, 3 μM), Cyclopamine (Tocris, 10 μM), Sonic Hedgehog (C25II-R&D 100 ng/ml), and Purmorphamine (Stemgent, 1 μM), were added.
Microscopy, antibodies, and flow cytometry: Cells were fixed using 4% paraformaldehyde for 15 minutes, washed with PBS, permeabilized using 0.3% Triton X in PBS, and blocked using 1% BSA. Primary antibodies used for microscopy included PAX6 (Covance, DSHB), TUJ1 (Covance), BRN3A (Chemicon), AP2a (DSHB), HNK1 (Sigma), PAX3 (DSHB), SIX1 (ABR, Atlas), ISL1 (DSHB), PERIPHERIN (Santa Cruz), GSU (gift A. McNeilly), CRYAB (Chemicon), DACH1 (Proteintech), EYA1 (gift Kawakami), E-CADHERIN (Abcam), FSH (gift A. McNeilly), GATA2 (Abcam), chick GFP (Abcam), hNCAM (Santa Cruz), GLUTAMATE (Sigma), KRT14 (Labvision), SIX6 (Atlas), LHX3 (Abcam), OVOL2 (Aviva), TFAP2A (DSHB), FOXG1 (gift E. Lai), hCA (Stem Cells), and Ki67 (Sigma). Appropriate Alexa 488, Alexa 568, Alexa 647 secondary antibodies (Molecular Probes) and/or DAPI counterstaining was used for visualization. For Flow Cytometry, cells were mechanically dissociated after exposure to accutase for 20 min at 25° C. To eliminate dead cell populations in FACS analysis, we used DAPI or 7-AAD according to manufacturer's recommendation. Cells were analyzed using FACScan (Becton Dickinson) and FlowJo software (Tree Star, Inc.).

Assay [4] relates to pre-placode cells. The experiment in a line: Lens placode specification (PITX3 qRT-PCR). To be noted: added days 7-11, read at day 16. The method, then: The impact of four developmental signaling pathways on lens placode specification was tested by using activators and inhibitors of BMP, FGF, WNT, and Hedgehog signaling. To quantify the induction of lens placode fate, the lens precursor marker PITX3 expression was monitored at day 16 of differentiation (FIG. 37B). […] A role for BMPs and FGFs has been previously proposed in developmental studies in the chick (Sjödal et al., 2007). […] The characteristic layering of lens fibers (FIG. 36H, right panel) mimicked the structural properties of developing lens in vivo.

Assay [5] relates to SIX1::GFP cells. As to the kind of experiment: PIP-E6 pituitary induction and hormone release. To be noted: for number of putative pituitary stem cells (Ki67 and Sox2): days 6-14. The method, then:
Induction of anterior pituitary gland cells: Pituitary placode cells were induced by culturing SIX1::GFP cells according to the PIP-E6 protocol, wherein pituitary factors SHH, FGF8, FGF10 and/or hypothalamus CM were supplemented in the culture media from days 6-15.
Induction of anterior pituitary gland cells: SIX1::GFP hPSCs were cultured according to a modified PIP-E6 protocol, wherein pituitary factors such as FGF8, FGF10 or SHH, etc., were included in the culture media from days 6-14. Cells were sorted based on expression of SIX1::GFP, and were replated at a concentration of 10,000 cells/cm^2 on PO/L/F, and were incubated with small molecule/growth factors for 2 weeks. (FIG. 68). […] (FIG. 69).

The subject of assay [6] is hESC derived FP. As to the kind of experiment: A/P respecification of hESC derived FP by caudalizing factors. As for the experimental part: For MS5 induction, established methods previously reported were used (Perrier et al., 2004). Feeder free neural induction was carried out as previously described (Chambers et al., 2009). Briefly, hESCs cultures were disaggregated using accutase for 20 minutes, washed using hESCs media and pre-plated on gelatin for 1 hour at 37° C. in the presence of ROCK inhibitor to remove MEFs. The nonadherent hESCs were washed and plated on matrigel at a density of 20,000 cells/cm2 on matrigel (BD) coated dishes in MEF conditioned hESCs media (CM) spiked with 10 ng/mL of FGF-2 and ROCK-inhibitor. The ROCK inhibitor was withdrawn, and hESCs were allowed to expand in CM for 3 days or until they were nearly confluent. The initial differentiation media conditions included knock out serum replacement (KSR) media with […] TGF-b inhibitor (SB431542, Tocris) and 500 ng/mL of Noggin (R&D). Upon day 5 of differentiation, increasing amounts of N2 media (25%, 50%, 75%) was added to the KSR media every two days while maintaining 500 ng/mL of Noggin and TGF-b inhibitor. For FP induction, Sonic C25II was added at 200 ng/ml. In some experiments, DKK-1 (R&D 100 ng/ml) FGF8 (R&D 50 ng/ml), Wnt-1 (Peprotech 50 ng/ml) and Retinoic Acid (R&D 1 uM) were added.
The inventors contemplated the use of SIX6 as a putative marker of anterior FP identity. Thus SIX6 status of the hESC derived FP was used to mark respecification in response to known caudalizing agents such as FGF8, Wnt-1, and Retinoic Acid. Each of these caudalizing factors was added in combination with SHH and the resulting tissue was assessed for expression of the FP markers FOXA2 and NETRIN-1, the AN marker BF1, and putative anterior FP marker SIX6. FP generation was found not compromised in the presence of caudalizing factors.
The inventors discovered that different factors had varied effects on marker expression (FIG. 20C).
As mentioned above, studies had identified different enhancers that directed SHH expression to different A/P region along ventral axis (Jeong et al., 2008). […] In the absence of caudalizing factors (SHH C25II alone), LacZ expression was observed herein following transfection with the SBE2 but not the SBE1 enhancer supporting the hypothesis that hESC derived FP is anterior by default (FIG. 20D). In contrast SBE2 activity was abolished upon treatment with Wnt1 or FGF8 while SBE1 activity was induced under these conditions.

Where no end group is shown, it is not given here.

With `CN1CCC(c2c[nH]c3ccc(O)cc23)CC1` [BRL-54443], in assay [1], the placode induction result is “promoting placode induction”.
With `Cc1c[nH]c(-c2cnc(NCCNc3ccc(C#N)cn3)nc2-c2ccc(Cl)cc2Cl)n1` [CHIR99021], the default placode fate entry in assay [2] (days 2-4 of the PIP-E6 protocol) was “induction of trigeminal placodes”. The placode fate result in assay [3] is “suppressed placode”.
Regarding `O.c1cnc2c(c1)ccc1cccnc12` [Phenanthroline monohydrate], the placode induction entry in assay [1] was “promoting placode induction”.
Regarding `Cc1c[nH]c(/C=C2\C(=O)Nc3ccccc32)c1CCC(=O)O` [SU5402], in assay [4], the PITX3 expression entry is “significantly induced”. In assay [3] (day 3-11 of PIP), the TFAP2A expression entry was “maintaining” and the “emergence of SIX1+ clusters” value was “suppressed”. Moreover, in assay [3] (day 11), the “placode marker (SIX1) gene expression” value is reported as “complete loss”. For the same molecule, the “KRT14 mature keratinocyte marker” value in assay [3] (long-term cultures (day 42-60)) is on record as “robust induction”.
FGF2: growth factor: in assay [5], the “number of putative pituitary stem cells (Ki67 and Sox2)” value is reported as “may increase”.
On to “somatocrinin: external stimulus causing growth hormone release (YADAIFTNSYRKVLGQLSARKLLQDIMSRQQGESNQERGARARL; ends and bridges not checked; UniProt P01286 32-75, looked up)”, for which, in assay [5] (hormone expressing cells), the “growth hormone (GH) release” value was “released growth hormone (GH)”.

B1: FGF8: caudalizing factor / pituitary patterning factor (protein, UniProt P55075 23-233, looked up)
Fibroblast growth factor 8: QEGPGRGPALGRELASLFRAGREPQGVSQQHVREQSLVTDQLSRRLIRTYQLYSRTSGKHVQVLANKRINAMAEDGDPFAKLIVETDTFGSRVRVRGAETGLYICMNKKGKLIAKSNGKGKDCVFTEIVLENNYTALQNAKYEGWYMAFTRKGRPRKGSKTRQHQREVHFMKRLPRGHHTTEQSLRFEFLNYPPFTRSLRGSQRTWAPEPR
With B1, in assay [6] (SHH enhancer LacZ construct), the SBE1 activity entry was “induced” and the SBE2 activity result is recorded as “abolished”. The SIX6 expression result in assay [6] (in combination with SHH) is “significant reduction”. Moreover, the “number of putative pituitary stem cells (Ki67 and Sox2)” value in assay [5] is given as “may increase”. Also, the ASCL1 expression result in assay [3] (pre-placode cells) is recorded as “enriches”.

B2: BMP4: recombinant bone morphogenetic protein-4, activator of BMP signaling (protein, UniProt P12644 293-408, looked up)
Bone morphogenetic protein 4: SPKHHSQRARKKNKNCRRHSLYVDFSDVGWNDWIVAPPGYQAFYCHGDCPFPLADHLNSTNHAIVQTLVNSVNSSIPKACCVPTELSAISMLYLDEYDKVVLKNYQEMVVEGCGCR
On to B2, for which the PITX3 expression result in assay [4] is given as “significantly induced”. Also, the cell fate induced result in assay [2] (5 ng/ml, with SB431542, withdrawn after 3 days) is reported as “placode development”; in assay [2] (20 ng/ml), “induction of non-neural ectoderm”. For the same molecule, in assay [2] (5 ng/ml, withdrawn after 3 days versus 1 or 2 days, 6 total days), the “yield of placode precursors” value is recorded as “highest yield of placode precursors”. Also, the placode fate entry in assay [3] was “suppressed placode”. In addition, in assay [3] (in the presence of SB), the CDX2 induction entry is listed as “triggered induction of CDX2”.

The record behind these values is US12618044B2, “Specification of functional cranial placode derivatives from human pluripotent stem cells” (MEMORIAL SLOAN-KETTERING CANCER CENTER, priority 2013, dated 2026).
